The values that follow come from US20110130286A1, “Piperazine Compounds with Herbicidal Effect” (BASF SE, priority 2008, published 2011).

Data set [1] has as its system POLCO. Briefly: greenhouse test, pre-emergence treatment. Type of data set: in vivo, Fallopia convolvulus. The text has this: (§1) The culture containers used were plastic flowerpots containing loamy sand with approximately 3.0% of humus as the substrate. The seeds of the test plants were sown separately for each species.
(§2) For the pre-emergence treatment, the active compounds, which had been suspended or emulsified in water, were applied directly after sowing by means of finely distributing nozzles. The containers were irrigated gently to promote germination and growth and subsequently covered with transparent plastic hoods until the plants had rooted. This cover caused uniform germination of the test plants, unless this has been impaired by the active compounds.
(§3) Depending on the species, the plants were kept at 10-25° C. or 20-35° C. […] During this time, the plants were tended, and their response to the individual treatments was evaluated. […]
(§4) The test period extended over 20 or 21 days. During this time, the plants were tended, and their reactions to the treatments with active compound were monitored.
(§5) In the examples below, using the method of S. R. Colby (1967) “Calculating synergistic and antagonistic responses of herbicide combinations”, Weeds 15, p. 22ff., the value E, which is expected if the activity of the individual active compounds is only additive, was calculated.
(§6) What was evaluated was the damage by the chemical compositions using a scale of from 0 to 100%, in comparison to the untreated control plants. […]

In another data set the test system is CHEAL. Put plainly: greenhouse test, post-emergence treatment. In kind it is in vivo, Chenopodium album.
Text: as §1
(§7) For the post-emergence treatment, the test plants were first grown to a height of 3 to 15 cm, depending on the plant habit, and then treated with the active compounds which had been suspended or emulsified in water. For this purpose, the test plants were either sown directly and grown in the same containers, or they were first grown separately as seedlings and transplanted into the test containers a few days prior to treatment.
as §3, §4, §5, §6

For data set [2], the system named is BROIN. Briefly: greenhouse test, pre-emergence treatment. Type of data set: in vivo, Bromus inermis.
Text: as §1, §2
(§8) Depending on the species, the plants were kept at 10-25° C. or 20-35° C. The test period extended over 2 to 4 weeks. During this time, the plants were tended, and their response to the individual treatments was evaluated.
(§9) The respective stated components A and B were formulated as a 5% by weight strength or 10% by weight strength emulsion concentrate, or a commercial formulation of component B was used, and, with addition of the amount of solvent system, introduced into the spray liquor used for applying the active compound. In the examples, the solvent used was water.
as §4, §5
(§10) What was evaluated was the damage by the chemical compositions using a scale of from 0 to 100%, in comparison to the untreated control plants. 0 means no damage, and 100 means complete destruction of the plants.

Data set [3] relates to BROIN. Briefly: greenhouse test, post-emergence treatment. Type of data set: in vivo, Bromus inermis.
Text: as §1, §7, §3, §4, §5, §6

In data set [4] the test system is APESV. Put plainly: greenhouse test, pre-emergence treatment. In kind it is in vivo, Apera spica-venti. As to conditions: for herbicidal activity against APESV: application rate 0.125 kg/ha, comparative test.
Text: as §1, §2, §8
(§11) Evaluation was carried out using a scale from 0 to 100. 100 means no emergence of the plants, or complete destruction of at least the aerial moieties, and 0 means no damage, or normal course of growth. A good herbicidal activity is given at values of at least 70 and a very good herbicidal activity is given at values of at least 85.
as §9, §4, §5, §10

The next data set concerns LAMPU. Briefly: greenhouse test, pre-emergence treatment. In kind it is in vivo, Lamium purpureum.
Text: as §1, §2, §3, §4, §5, §6

The subject of data set [5] is POLCO. Put plainly: greenhouse test, post-emergence treatment. In kind it is in vivo, Fallopia convolvulus.
Text: as §1, §7, §3, §4, §5, §6

Another data set concerns SETVI. Briefly: greenhouse test, pre-emergence treatment. Type of data set: in vivo, Setaria viridis.
Text: as §1, §2, §3, §4, §5, §6

Data set [6] relates to APESV. Put plainly: greenhouse test, post-emergence treatment. In kind it is in vivo, Apera spica-venti.
Text: as §1, §7, §3, §4, §5, §6

Data set [7] relates to ALOMY. Put plainly: greenhouse test, post-emergence treatment. In kind it is in vivo, Alopecurus agrestis.
Text: as §1, §7, §3, §4, §5, §6

For data set [8], the system named is ALOMY. Put plainly: greenhouse test, pre-emergence treatment. Type of data set: in vivo, Alopecurus agrestis. As to conditions: for herbicidal activity against ALOMY: application rate 0.125 kg/ha, comparative test.
Text: as §1, §2, §8, §11, §9, §4, §5, §10

Data set [9] relates to ECHCG. Put plainly: greenhouse test, pre-emergence treatment. In kind it is in vivo, Echinochloa crus-galli.
Text: as §1, §2, §8, §11, §9, §4, §5, §10

The next data set has as its system ABUTH. Put plainly: greenhouse test, pre-emergence treatment. Type of data set: in vivo, Abutilon theophrasti.
Text: as §1, §2, §3, §4, §5, §6

The test system of another data set is BRAPL. Briefly: greenhouse test, pre-emergence treatment. Type of data set: in vivo, Brachiaria plantaginea.
Text: as §1, §2, §3, §4, §5, §6

In another data set the test system is VIOAR. Briefly: greenhouse test, pre-emergence treatment. In kind it is in vivo, Viola arvensis.
Text: as §1, §2, §3, §4, §5, §6

The test system of the next data set is LOLMU. Briefly: greenhouse test, post-emergence treatment. In kind it is in vivo, Lolium multiflorum. Particulars: application rate 1.0 kg/ha, scale from 0 to 100.
Text: as §1, §7, §8, §11

Data set [10] relates to ECHCG. Briefly: greenhouse test, post-emergence treatment. Type of data set: in vivo, Echinochloa crus-galli. Particulars: application rate 1.0 kg/ha, scale from 0 to 100.
Text: as §1, §7, §8, §11

The next data set relates to AVEFA. Put plainly: greenhouse test, post-emergence treatment. As to conditions: application rate 1.0 kg/ha, scale from 0 to 100. In kind it is in vivo, Avena fatua.
Text: as §1, §7, §8, §11

Where [11] appears, read: application rate 0.125 kg/ha, comparative test.

The structures appear in SMILES notation.

`CCC(CC)Nc1c([N+](=O)[O-])cc(C)c(C)c1[N+](=O)[O-]` [pendimethalin, reference compound]: the “Herbicidal activity in % after 20 days against POLCO” value in the data set on POLCO [1] (250 g/ha a.s.) is 70%. In addition, the “Herbicidal activity in % after 20 days against CHEAL” value with CHEAL (250 g/ha a.s.) is listed as 75%. Further, the “Herbicidal activity in % after 20 days against BROIN” value with BROIN [2] (250 g/ha a.s.) came out at 40%; in the data set on BROIN [3] (250 g/ha a.s.), 0%. Further, the “Herbicidal activity in % after 20 days against APESV” value in the data set on APESV [4] (250 g/ha a.s.) worked out at 95%.

As to `Cn1nc(C(F)(F)F)c(CS(=O)(=O)C2=NOC(C)(C)C2)c1OC(F)F` [pyroxasulfone, reference compound], the “Herbicidal activity in % after 20 days against LAMPU” value with LAMPU (12.5 g/ha a.s.) amounted to 80%. Besides, in the data set with POLCO [5] (12.5 g/ha a.s.), the “Herbicidal activity in % after 20 days against POLCO” value came out at 40%. In the data set with SETVI (12.5 g/ha a.s.), the “Herbicidal activity in % after 20 days against SETVI” value is 90%. For the same compound, the “Herbicidal activity in % after 20 days against APESV” value in the data set on APESV [6] (12.5 g/ha a.s.) is recorded as 80%. In addition, in the data set with BROIN [2] (12.5 g/ha a.s.), the “Herbicidal activity in % after 20 days against BROIN” value came to 65%. Further, the “Herbicidal activity in % after 20 days against ALOMY” value stood at 85% in the data set on ALOMY [7] (12.5 g/ha a.s.) and 90% with ALOMY [8] (12.5 g/ha a.s.).

For orientation: melting point means the temperature, or range, at which the solid turns liquid. With `CN1C(=O)C(C)(Cc2ccccc2)N(C)C(=O)/C1=C/c1cccnc1C#N` (stereo not drawn) [I-2], the melting point is 163 °C. The “Herbicidal activity in % after 20 days against LAMPU” value in the data set on LAMPU (62.5 g/ha a.s.) stood at 40%. Further, the “Herbicidal activity in % after 20 days against POLCO” value in the data set with POLCO [1] (125 g/ha a.s.) was found to be 80%. For the same compound, the “Herbicidal activity in % after 20 days against POLCO” value in the data set on POLCO [5] (62.5 g/ha a.s.) amounted to 40%. Besides, the “Herbicidal activity in % after 20 days against CHEAL” value in the data set with CHEAL (125 g/ha a.s.) is 70%. In addition, the “Herbicidal activity in % after 20 days against SETVI” value in the data set with SETVI (62.5 g/ha a.s.) turned out to be 90%. For the same compound, the “Herbicidal activity in % after 20 days against ECHCG” value in the data set on ECHCG [9] (62.5 g/ha a.s.) came out at 40%. Also, the “herbicidal activity against ECHCG” value with ECHCG [9] (setting [11]) came to 80%. For the same compound, in the data set on APESV [6] (62.5 g/ha a.s.), the “Herbicidal activity in % after 20 days against APESV” value is reported as 40%. In addition, the “Herbicidal activity in % after 20 days against BROIN” value with BROIN [2] (62.5 g/ha a.s.) is recorded as 20%. Also, the “Herbicidal activity in % after 20 days against BROIN” value with BROIN [2] (125 g/ha a.s.) is given as 80%. For the same compound, the “Herbicidal activity in % after 20 days against ALOMY” value in the data set with ALOMY [7] (62.5 g/ha a.s.) was 45%. The “Herbicidal activity in % after 20 days against ABUTH” value with ABUTH (62.5 g/ha a.s.) was 0%. The “Herbicidal activity in % after 20 days against BRAPL” value in the data set on BRAPL (62.5 g/ha a.s.) amounted to 65%. Further, the “Herbicidal activity in % after 20 days against BROIN” value in the data set with BROIN [3] (125 g/ha a.s.) was found to be 45%. In the data set with VIOAR (62.5 g/ha a.s.), the “Herbicidal activity in % after 20 days against VIOAR” value is 60%. In the data set with APESV [4] (125 g/ha a.s.), the “Herbicidal activity in % after 20 days against APESV” value is 95%. For the same compound, in the data set with APESV [4], the “herbicidal activity against APESV” value turned out to be 100%. Besides, in the data set on ALOMY [8] (62.5 g/ha a.s.), the “Herbicidal activity in % after 20 days against ALOMY” value came to 65%. The “herbicidal activity against ALOMY” value with ALOMY [8] worked out at 75%.

For `CC(C)CN1C(=O)C(=Cc2cccnc2Br)N(C)C(=O)C1(C)Cc1ccccc1` (racemic) [I-463], in the data set with ECHCG [9] (application rate 0.5 kg/ha, scale from 0 to 100), the “herbicidal activity against ECHCG” value is listed as “good (A good herbicidal activity is given at values of at least 70)”.

As to `CN1C(=O)C(C)(Cc2ccccc2)N(C)C(=O)C1=Cc1cccnc1Cl` (stereo not drawn) [Example 3, 3-benzyl-6-[1-(2-chloropyridin-3-yl)methylidene]-1,3,4-tri-methylpiperazine-2,5-dione], the melting point came out at 146 °C.

Consider `CN1C(=O)C(C)(Cc2ccccc2)N(C)C(=O)C1=Cc1cccnc1C#N` (stereo not drawn) [Example 4, 3-(5-benzyl-1,4,5-trimethyl-3,6-dioxopiperazin-2-ylidene-methyl)pyridine-2-carbonitrile], for which the melting point came out at 163 °C.

Consider `CN1C(=O)C(C)(Cc2ccccc2)N(C)C(=O)C1=Cc1cccnc1Br` (racemic) [I-1], for which the “herbicidal activity against LOLMU” value in the data set on LOLMU is recorded as “very good (a very good herbicidal activity is given at values of at least 85)”. For the same compound, in the data set with ECHCG [10], the “herbicidal activity against ECHCG” value was “very good (a very good herbicidal activity is given at values of at least 85)”. For the same compound, the “herbicidal activity against AVEFA” value in the data set with AVEFA is given as “very good (a very good herbicidal activity is given at values of at least 85)”.

For the compound `CN1C(=O)C(Cc2ccccc2)N(C)C(=O)/C1=C/c1cccnc1C#N` (stereo not drawn) [Ex. 14, reference compound], in the data set with ECHCG [9] (setting [11]), the “herbicidal activity against ECHCG” value is “no herbicidal activity”. Also, the “herbicidal activity against APESV” value with APESV [4] was 90%. The “herbicidal activity against ALOMY” value in the data set with ALOMY [8] is listed as “no herbicidal activity”.

Regarding `CC(C)N(C)S(=O)(=O)NC(=O)c1cc(-n2c(=O)cc(C(F)(F)F)n(C)c2=O)c(F)cc1Cl` [saflufenacil, reference compound], in the data set on ECHCG [9] (6.25 g/ha a.s.), the “Herbicidal activity in % after 20 days against ECHCG” value was found to be 0%. In addition, the “Herbicidal activity in % after 20 days against ABUTH” value in the data set with ABUTH (6.25 g/ha a.s.) is on record as 90%. Besides, in the data set on BRAPL (6.25 g/ha a.s.), the “Herbicidal activity in % after 20 days against BRAPL” value turned out to be 35%. Also, the “Herbicidal activity in % after 20 days against VIOAR” value in the data set with VIOAR (6.25 g/ha a.s.) was found to be 80%.
